Measurements from article PMC11697113, “The Hsc70 system maintains the synaptic SNARE protein SNAP-25 in an assembly-competent state and delays its aggregation [drawing 1]” (The Journal of Biological Chemistry, 2024).

Tests used:
SNAP-25 = assay: Far-UV CD; format: physicochemical; settings: far-UV CD 200–250 nm, 22 °C (Fig. S1)
Method: SNAP-25 has four native cysteines that are palmitoylated upon interaction with the membrane. […] For all of our studies, the SNAP-25 CS mutant was used unless otherwise mentioned.
The far-UV CD spectra (200–250 nm) were recorded on a Jasco J-1500 Circular Dichroism Spectrophotometer at 22 °C. The SNAP-25 WT, SNAP-25, and mixture of SNAP-25 and Hsc70 were taken in a 1 mm path length quartz cuvette. Figures show the average of ten scans where the buffer baselines were subtracted. Data were plotted using software using the Origin (Pro) program (OriginLab Corp).

Hsc70 = target: T1, Hsc70 (Homo sapiens, UniProt P11142); assay: ATPase activity of Hsc70 (malachite green); format: biochemical; settings: Hsc70 2 μM, peptide 200 μM, 1 mM ATP, HMK buffer, 1 mM DTT, 37 °C, 1 h, malachite green 620 nm; SD, three independent experiments
T1 construct: 6X His-tag (TEV-cleavable) (cleaved yes); made in house; host or cells: E. coli Rosetta (DE3)
Source text: Hsp70s consist of an nucleotide-binding domain (NBD) and a substrate-binding domain (SBD). Hsc70 works using an allosteric mechanism whereby substrate binding at the SBD stimulates the ATP hydrolysis rate at the nucleotide-binding domain. The basal ATPase rate of Hsp70 is low, usually about 0.05 ± 0.009 mol Pi/mol protein, and increases when it is stimulated by binding of a peptide to the canonical site in the SBD. We measured the ability of SNAP-25 peptides SNNP and SNCP to stimulate the ATPase rate of Hsc70 (Fig. 5A). SNNP and SNCP binding cause a 1.5-fold increase of the Hsc70 ATPase rate over basal (observed rates upon addition of SNNP and SNCP were 0.089 ± 0.008 and 0.080 ± 0.005, respectively). In order to confirm that peptides are indeed binding at the canonical binding site of Hsc70, we used the V438F mutant that blocks the binding site ([37]). […] The addition of CSPαJ stimulates the ATPase activity of Hsc70 ∼4-fold with and without peptides.
Figure 5 SNN and SNC peptides interact with the canonical substrate-binding site of Hsc70.A, ATPase activity of Hsc70 (2 μM) in the absence (gray) and presence of 200 μM SNNP (orange) and SNCP (green) peptides. Error bars represent the SDs from three independent experiments. B, binding of SNAP-25 (black), SNNP (orange), LoopP (blue), and SNCP (green) peptides to Hsc70 followed by competition for FITC-p5 peptide using fluorescence anisotropy. Increasing concentrations of the competitors were added to a complex of Hsc70 (5 μM) and FITC-p5 peptide (50 nM). Error bars represent SDs from three independent experiments. […]
We performed ATPase assays to observe the activity of Hsc70 in the presence of SNAP25 peptides. […] Absorbance readings were taken at 620 nm using a BioTek plate reader. […]
(C) ATPase activity of Hsc70 (at 2 μM) in the absence (grey) and presence of 200 μM SNNP (orange) and L(Loop)-SNCP (green) peptides, and in the absence and presence of CSPa-J and CSPa-J/Apg2. The statistical significance was calculated using one-way ANOVA test with Sidak’s multiple comparison and the Hsc70 ATPase activity […]

T1 sequence (P11142 whole entry): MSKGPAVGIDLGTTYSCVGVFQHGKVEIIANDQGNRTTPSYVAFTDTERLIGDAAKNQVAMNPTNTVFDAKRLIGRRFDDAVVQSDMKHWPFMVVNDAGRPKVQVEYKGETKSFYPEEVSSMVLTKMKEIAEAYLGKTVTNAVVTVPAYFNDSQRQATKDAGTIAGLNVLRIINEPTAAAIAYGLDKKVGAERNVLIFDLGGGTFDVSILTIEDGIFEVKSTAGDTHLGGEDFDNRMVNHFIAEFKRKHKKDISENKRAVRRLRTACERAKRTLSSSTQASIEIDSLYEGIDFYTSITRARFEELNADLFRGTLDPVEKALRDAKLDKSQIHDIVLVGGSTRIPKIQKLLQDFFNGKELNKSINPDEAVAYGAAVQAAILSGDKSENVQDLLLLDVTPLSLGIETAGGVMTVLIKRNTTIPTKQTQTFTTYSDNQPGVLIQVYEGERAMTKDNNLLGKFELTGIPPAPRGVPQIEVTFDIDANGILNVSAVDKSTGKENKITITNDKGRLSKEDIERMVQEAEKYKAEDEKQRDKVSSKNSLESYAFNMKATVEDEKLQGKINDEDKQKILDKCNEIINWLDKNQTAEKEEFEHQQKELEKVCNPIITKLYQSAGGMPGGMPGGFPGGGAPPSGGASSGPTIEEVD

Substance | conformational change upon Hsc70-SNAP-25 interaction (SNAP-25) | ATPase rate of Hsc70 upon addition of peptide (Hsc70)
synaptosomal-associated 25 kDa protein [SNAP-25] | no significant conformational change | 
EREQMAISGGFIRR [SNCP, peptide … from the LOOP-SNC domain of SNAP-25] |  | 0.080 ± 0.005
RRMLQLVEESK [SNNP, peptide … from the SNN domain of SNAP-25] |  | 0.089 ± 0.008
